Test results reported in patent US8420649B2, “Pyrido[3,2-d]pyridazine-2(1H)-one compounds as p38 modulators and methods of use thereof” (Amgen Inc., priority 2008, dated 2013).
pIC50: −log10 of the molar value. Several values for one entry are separate records, joined by “and”; a condition that tells them apart may be missing. Equal entries are not always repeated. Where two headings read alike, the source gives them in different places.

Legend:
human p38α = human p38α (Homo sapiens, UniProt Q16539); assay: Purified and activated recombinant human p38α HTRF kinase assay; type: biochemical; conditions: recombinant human p38α 1 nM, 50 μM ATP, read-out: p38a IC50
Procedure: Purified and Activated Recombinant Human p38α Assay Kinase Reaction Buffer: Kinase reaction buffer for p38α HTRF assays consists of 50 mM Tris-pH 7.5, 5 mM MgCl2, 0.1 mg/mL BSA, 100 μM Na3VO4 and 0.5 mM DTT. HTRF Detection Buffer: HTRF detection buffer contains 100 mM HEPES-pH 7.5, 100 mM NaCl, 0.1% BSA, 0.05% Tween-20, and 10 mM EDTA. Serial Dilution of Compounds: Compounds were dissolved in 100% DMSO and serially diluted (3 fold, 10 point) in a polypropylene 96-well microtiter plate (drug plate). The final starting concentration of compounds in the p38α enzymatic assays was 1 μM. […] Kinase Reaction: […] See table below for actual concentrations. In the absence of substrate, the background was measured as LO control. The reaction was allowed to incubate for 1 hour at RT. Assay Reagent Concentrations: […] HTRF Detection: […] After 60 minutes incubation at room temperature, the assay plate was read in a Discovery Plate Reader. The wells were excited with coherent 320 nm light and the ratio of delayed ([…] post excitation) emissions at […] (native europium fluorescence) and 665 nm (europium fluorescence transferred to allophycocyanin-an index of substrate phosphorylation) was determined (Park et al, 1999). Data Analysis: The proportion of substrate phosphorylated in the kinase reaction in the presence of compound compared with that phosphorylated in the presence of DMSO vehicle alone (HI control) was calculated using the formula: % control (POC)=(compound-average LO)/(average HI-average LO)*100. […] The inhibition constant (Ki) of the inhibitor was estimated from the IC50 (compound concentration at the point of inflection C) using the Cheng-Prussof equation: […] All results were expressed as the mean±the standard error of the mean.

[1] = system: IL-1β, IL-6 and TNF-α production by LPS-activated PBMC; assay: Lipopolysaccharide-activated PBMC cytokine production assay; type: cell-based; conditions: Homo sapiens, read-out: IC50 in the whole blood PMBC assay
Procedure: Lipopolysaccharide-Activated PBMC Cytokine Production Assay
Test compounds were evaluated in vitro for the ability to inhibit the production of IL-1β, IL-6, and TNF-α by PBMC activated with bacterial lipopolysaccharide (LPS). Fresh leukocytes were obtained from a local blood bank, and peripheral blood mononuclear cells (PBMCs) were isolated by density gradient centrifugation on Ficol-Paque Plus (Pharmacia).
Preparation of Test Compound Stock Solutions
All reagents were prepared in RPMI 1640+10% v/v human AB serum+1× Pens/Strep/Glu (assay medium). Test compounds were dissolved in 100% DMSO and serially diluted in 96-well polypropylene round bottom micro titer plates (drug plate). Serial dilutions were then diluted 1:250 into assay medium to a 4× working concentration. Compound serial dilutions were half-log, 10 point titrations with a final starting concentration of 1 μM.
Treatment of Cells with Test Compounds and Activation with Lipopolysaccharide
LPS was prepared to a 4× concentration in assay medium. 100 μl of PBMC (1×10^6 cells/ml) were plated in a 96-well polystyrene flat bottom micro titer tissue culture plate and incubated with 50 μl of 4× compound serial dilution for 1 hour at 37° C., 5% CO2 in a tissue culture incubator. 50 μl 4×LPS or control was added and the plates were incubated at 37° C., 5% CO2 in a tissue culture incubator for 18 hours. The final DMSO concentration was 0.1%. The total volume was 200 μL. The final LPS concentration was 100 ng/mL. After 18 hours culture supernatants were removed and IL-1β, IL-6, and TNF-α presence in the supernatants was quantified using MSD ECL based technology.
20 μL of culture supernatant were added to MSD plates, and incubated for one hour at room temperature. 20 μL of detection antibody diluted in antibody diluent (1 μg/mL), and 110 μL of 2× Read Buffer P was added, and incubated for one hour at RT. Electrochemiluminescence was measured using the SECTOR HTS Imager (MSD, Gaithersburg, Md.).
Compound IC50 values were calculated as follows: The proportion of cytokine production in the presence of compound compared to the cytokine production in the presence of the DMSO vehicle alone (Hi control) was calculated using the formula: Percent Control (POC)=(compound−average Lo)/(average Hi−average Lo)*100.

[2] = system: TNF-α induced IL-8 production in human whole blood; assay: Inhibition of TNF-α induced IL-8 in 50% human whole blood; type: cell-based
Procedure: Inhibition of TNF-α Induced IL-8 in 50% Human Whole Blood Test compounds were evaluated in vitro for the ability to inhibit the production of secreted IL-8 by whole blood activated with TNF-α. Fresh human whole blood was obtained from healthy, non-medicated volunteers in sodium heparin tubes. Compound Dilution—Assay Procedure […] Cytokine Measurement Cytokines are measured on antibody (Ab) sandwich ECL based 96-well detection plates. 20 ul of supernatant are added to plate and plate is sealed and shaken at RT for 1 hour. 130 ul of detection Ab cocktail is added and plates are sealed and shaken for 1 hour in the dark at RT. Plates are read on MSD Sector HTS instrument.

[3] = system: TNF-α production by LPS-activated THP1 cells; assay: Lipopolysaccharide-activated THP1 cell TNF production assay; type: cell-based; conditions: Homo sapiens, THP-1, 3 hours, read-out: IC50 in the THP-1 cellular TNF production assay
Procedure: Lipopolysaccharide-activated THP1 Cell TNF Production Assay
THP1 cells were resuspended in fresh THP1 media (RPMI 1640, 10% heat-inactivated FBS, 1×PGS, 1×NEAA, plus 30 μM βME) at a concentration of 1.5×10^6 cells per mL. One hundred microliters of cells per well were plated in a polystyrene 96-well tissue culture plate. 1.5 micrograms per mL of bacterial LPS was prepared in THP1 media and transferred to the first 11 columns of a 96-well polypropylene plate. Column 12 contained only THP1 media for the LO control. Compounds were dissolved in 100% DMSO and serially diluted 3 fold in a polypropylene 96-well microtiter plate (drug plate). Columns 6 and 12 were reserved as controls (HI controls and LO controls respectively) and contained only DMSO. […] Fifty microliters of conditioned media was transferred to a 96-well MULTI-ARRAY™ 96-well small spot plate—custom coated with MAB610 containing 100 μL of 2× Read Buffer P supplemented with 0.34 nM AF210NA polyclonal Ab labeled with ruthenium (MSD-Sulfo-TAG™—NHS ester). After an overnight incubation at room temperature with shaking, the reaction was read on the Sector Imager™ 6000. […] The amount of secreted TNF-α in the presence of test compounds compared with that in the presence of DMSO vehicle alone (HI control) was calculated using the formula: % control (POC)=(cpd−average LO)/(average HI−averageLO)*100. […]

[4] = Homo sapiens, read-out: WB TNF/IL8 IC50, TNF-α (1 nM) induced IL-8, 50% human whole blood, 16-18 hours

Sequence of human p38α (Q16539 whole entry): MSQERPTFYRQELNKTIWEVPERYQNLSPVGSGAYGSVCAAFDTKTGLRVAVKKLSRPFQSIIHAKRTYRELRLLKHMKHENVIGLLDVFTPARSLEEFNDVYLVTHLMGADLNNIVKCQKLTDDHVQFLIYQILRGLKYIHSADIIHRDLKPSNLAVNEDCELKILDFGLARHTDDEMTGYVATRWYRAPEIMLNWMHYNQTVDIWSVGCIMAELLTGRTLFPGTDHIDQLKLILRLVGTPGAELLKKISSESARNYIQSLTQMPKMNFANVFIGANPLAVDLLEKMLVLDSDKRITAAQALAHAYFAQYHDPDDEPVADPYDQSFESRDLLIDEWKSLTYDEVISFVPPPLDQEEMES

Row | Compound | pIC50 (human p38α) | pIC50 ([1]; 18 h) | pIC50 [2, 4] | pIC50 [3] | pIC50 ([1]; LPS 100 ng/mL, 18 hours) | pIC50 ([2]; read-out: WB TNF/IL8 IC50, TNF-α (1 nM) induced IL-8, 50% human whole blood, 16-18 hours)
1 | Cn1c(=O)c(Nc2ccc(F)cc2F)cc2cnnc(-c3ccc(C(F)(F)F)cc3F)c21 [Example 3, 3-(2,4-difluorophenylamino)-8-(2-fluoro-4-(trifluoromethyl)phenyl)-1-methylpyrido[3,2-d]pyridazin-2(1H)-one] | 8.64 | ≥ 6.00 | – | – | – | –
2 | Cn1c(=O)c(Nc2ccc(F)cn2)cc2cnnc(-c3ccc(F)cc3F)c21 [Example 4, 8-(2,4-difluorophenyl)-3-((5-fluoro-2-pyridinyl)amino)-1-methylpyrido[2,3-d]pyridazin-2(1H)-one] | 6.49 | – | < 5.60 | – | – | –
3 | Cn1c(=O)c(Nc2ccc(F)cc2F)cc2cnnc(-c3ccc(F)cc3F)c21 [Example 1, 8-(2,4-difluorophenyl)-3-(2,4-difluorophenylamino)-1-methylpyrido[3,2-d]pyridazin-2(1H)-one] | 9.10 | ≥ 6.00 | – | ≥ 6.00 | – | –
4 | Cn1c(=O)c(Nc2ccc(F)cc2F)cc2cnnc(-c3ccc(S(C)(=O)=O)cc3Cl)c21 [Example 10, 8-(2-chloro-4-(methylsulfonyl)phenyl)-3-((2,4-difluorophenyl)amino)-1-methylpyrido[2,3-d]pyridazin-2(1 H)-one] | 9.10 | – | – | – | ≥ 6.00 | –
5 | Cn1c(=O)c(Oc2ccc(F)cc2)cc2cnnc(-c3ccc(F)cc3F)c21 [Example 2, 8-(2,4-difluorophenyl)-3-(4-fluorophenoxy)-1-methylpyrido[3,2-d]pyridazin-2(1H)-one] | ≥ 6.90 and 6.99 | ≥ 6.00 | ≥ 6.52 | ≥ 6.00 | – | 6.56
6 | Cc1cc(S(C)(=O)=O)ccc1-c1nncc2cc(Oc3ccc(F)cc3F)c(=O)n(C)c12 [Example 9, 3-(2,4-difluorophenoxy)-1-methyl-8-(2-methyl-4-(methylsulfonyl)phenyl)pyrido[2,3-d]pyridazin-2(1H)-one] | 7.96 | – | – | – | ≥ 6.00 | –
7 | Cn1c(=O)c(Oc2ccc(F)cc2F)cc2cnnc(-c3ccccc3Cl)c21 [Example 6, 8-(2-chlorophenyl)-3-(2,4-difluorophenoxy)-1-methylpyrido[2,3-d]pyridazin-2(1H)-one] | 9.22 | ≥ 6.00 | – | – | – | –
8 | Cn1c(=O)c(Nc2ccc(F)cc2)cc2cnnc(-c3ccc(F)cc3F)c21 [Example 11, 8-(2,4-difluorophenyl)-3-((4-fluorophenyl)amino)-1-methylpyrido[2,3-d]pyridazin-2(1H)-one] | 8.66 | – | – | – | ≥ 6.00 | –
9 | Cc1cc(S(C)(=O)=O)ccc1-c1nncc2cc(Nc3ccc(F)cc3F)c(=O)n(C)c12 [Example 8, 3-((2,4-difluorophenyl)amino)-1-methyl-8-(2-methyl-4-(methylsulfonyl)phenyl)pyrido[2,3-d]pyridazin-2(1H)-one] | 8.77 | ≥ 6.00 | – | – | – | –
10 | CCn1c(=O)c(Nc2ccc(F)cc2F)cc2cnnc(-c3ccc(F)cc3F)c21 [Example 5, 8-(2,4-difluorophenyl)-3-((2,4-difluorophenyl)amino)-1-ethylpyrido[2,3-d]pyridazin-2(1H)-one] | 9.70 | ≥ 6.00 | – | – | – | –
11 | Cn1c(=O)c(Nc2ncc(F)cc2F)cc2cnnc(-c3ccc(F)cc3F)c21 [Example 7, 8-(2,4-difluorophenyl)-3-((3,5-difluoro-2-pyridinyl)amino)-1-methylpyrido[2,3-d]pyridazin-2(1H)-one] | 6.95 | – | < 5.60 | – | – | –
12 | Cn1c(=O)c(Oc2ccc(F)cc2F)cc2cnnc(-c3ccc(F)cc3F)c21 [Example 12, 3-(2,4-difluorophenoxy)-8-(2,4-difluorophenyl)-1-methylpyrido[2,3-d]pyridazin-2(1H)-one] | 8.08 | – | – | – | ≥ 6.00 | –
